Experimental data: US11419333B2, “Compositions and methods for biofilm removal” (ChampionX USA Inc., priority 2018, dated 2022)

System: Pseudomonas aeruginosa
Assay: Biocide test of quats in combination with THPS (ACCUCOUNT ATP)
Format: cell-based
Settings: 400 ppm (active) quat with addition of 8% THPS, compared to untreated sample
Description: The ability of POLY SUGA quats to act as biocides was tested. […] Each quat was compared to an untreated sample as well as a sample treated with a nonpolymeric cationic quat used as a positive control. Each test contained Pseudomonas aeruginosa, grown to a final density of 1×E8 per mL of cells in 3% sodium chloride containing growth medium. 400 ppm (active) of each quat was added to the mix and incubated for 4 and 24 hrs. After this time, 10 ml aliquots of each sample were drawn for analysis.
Active microbial populations were estimated using the ACCUCOUNT method. ACCUCOUNT uses ATP concentrations measured using fluorescence to indirectly quantitate the number of active microbes in a given sample. It is assumed that each cell contains 1 fg of ATP. By correlating the detected fluorescence to a known concentration of standard-the number of bacterial cells/mL is estimated.
The ability of each quat to act together with a known biocide to reduce microbial populations was tested. […] THPS alone and a non-polymeric cationic quat+THPS were used as positive controls.

## tetrakis(hydroxymethyl)phosphonium sulfate [THPS]
4 Hrs.
  % reduction in bacteria: 89.75%
24 Hrs.
  % reduction in bacteria: 91.73%
